# Like-named read-outs stand apart in the source and are kept apart here.
# What was measured:
# M. avium = assay: MIC (CLSI broth dilution), slow-growing NTM isolates; type: cell-based; details: Mycobacterium avium, read-out: MIC
# M. abscessus complex = assay: MIC (CLSI broth dilution), RGM isolates; type: cell-based; details: Mycobacteroides abscessus, read-out: MIC
# M. chelonae = assay: MIC (CLSI broth dilution), RGM isolates; type: cell-based; details: Mycobacteroides chelonae, read-out: MIC
# M. mucogenium group = assay: MIC (CLSI broth dilution), RGM isolates; type: cell-based; details: read-out: MIC
# [1] = system: slow-growing NTM isolates; assay: MIC (CLSI broth dilution), all slow-growing NTM isolates; type: cell-based, nontuberculous mycobacteria; details: all slow-growing NTM isolates; for MIC50: read-out: MIC50; for MIC90: read-out: MIC90
# [2] = system: rapid-growing mycobacteria (RGM) isolates; assay: MIC (CLSI broth dilution), all RGM isolates; type: cell-based, nontuberculous mycobacteria; details: all 50 RGM isolates; for MIC50: read-out: MIC50; for MIC90: read-out: MIC90
# M. arupense = assay: MIC (CLSI broth dilution), slow-growing NTM isolates; type: cell-based; details: isolate 11, Other; read-out: MIC
# M. chimaera = assay: as above; type: cell-based; details: read-out: MIC
# M. immunogenum group = assay: MIC (CLSI broth dilution), RGM isolates; type: cell-based; details: M. immunogenum, read-out: MIC
# M. simiae = assay: MIC (CLSI broth dilution), slow-growing NTM isolates; type: cell-based; details: read-out: MIC
# M. fortuitum group = assay: MIC (CLSI broth dilution), RGM isolates; type: cell-based; details: Mycolicibacterium fortuitum, read-out: MIC
# M. smegmatis group = assay: MIC (CLSI broth dilution), RGM isolates; type: cell-based; details: Mycolicibacterium smegmatis, read-out: MIC
# M. intracellulare = assay: MIC (CLSI broth dilution), slow-growing NTM isolates; type: cell-based; details: Mycobacterium intracellulare, read-out: MIC
# M. abscessus = details: strains of M. abscessus; Wallace et al.; cited from earlier work
# [3] = isolate 1, M. abscessus complex, erm gene type MAB30
# [4] = isolate 2, M. abscessus complex, erm gene type MAB30
# [5] = isolate 3, M. abscessus complex, erm gene type MAB30
# [6] = isolate 4, M. abscessus complex, erm gene type massiliense
# [7] = isolate 5, M. abscessus complex, erm gene type massiliense/subsp. abs hybrid
# [8] = isolate 6, M. abscessus complex, erm gene type Type 1 abscessus
# [9] = isolate 7, M. abscessus complex, erm gene type Type 1 abscessus
# [10] = isolate 8, M. abscessus complex, erm gene type Type 1 abscessus
# [11] = isolate 9, M. abscessus complex, erm gene type Type 1 abscessus
# [12] = isolate 10, M. abscessus complex, erm gene type Type 1 abscessus
# [13] = isolate 11, M. abscessus complex, erm gene type Type 6 abscessus
# [14] = isolate 12, M. abscessus complex, erm gene type Type 6 abscessus
# [15] = isolate 13, M. abscessus complex, erm gene type Type 6 abscessus
# [16] = isolate 14, M. abscessus complex, erm gene type Type 6 abscessus
# [17] = isolate 15, M. abscessus complex, erm gene type Type 7 abscessus
# [18] = isolate 16, M. abscessus complex, erm gene type Type 7 abscessus
# [19] = isolate 17, M. abscessus complex, erm gene type Type 8 abscessus
# [20] = isolate 39, M. mucogenicum group, M. mucogenicum
# [21] = isolate 40, M. mucogenicum group, M. mucogenicum
# [22] = isolate 41, M. mucogenicum group, M. mucogenicum
# [23] = isolate 42, M. mucogenicum group, M. mucogenicum
# [24] = isolate 43, M. mucogenicum group, M. phocaicum
# [25] = isolate 44, M. mucogenicum group, M. phocaicum
# [26] = isolate 45, M. mucogenicum group, M. phocaicum
# [27] = isolate 46, M. mucogenicum group, M. phocaicum
# [28] = isolate 47, M. mucogenicum group, M. phocaicum
# [29] = isolate 48, M. mucogenicum group, M. phocaicum
# [30] = isolate 35, M. immunogenum group
# [31] = isolate 36, M. immunogenum group
# [32] = isolate 37, M. immunogenum group
# [33] = isolate 38, M. immunogenum group
# [34] = isolate 23, M. fortuitum group, M. fortuitum
# [35] = isolate 24, M. fortuitum group, M. fortuitum
# [36] = isolate 25, M. fortuitum group, M. fortuitum
# [37] = isolate 26, M. fortuitum group, M. porcinum
# [38] = isolate 27, M. fortuitum group, M. porcinum
# [39] = isolate 28, M. fortuitum group, M. porcinum/M. boenickei
# [40] = isolate 29, M. fortuitum group, M. porcinum/M. boenickei
# [41] = isolate 30, M. fortuitum group, M. porcinum/M. boenickei
# [42] = isolate 31, M. fortuitum group, M. senegalense
# [43] = isolate 32, M. fortuitum group, M. senegalense
# [44] = isolate 33, M. fortuitum group, M. senegalense
# [45] = isolate 34, M. fortuitum group, M. senegalense
# [46] = isolate 49, M. smegmatis group, M. goodii
# [47] = isolate 50, M. smegmatis group, M. wolinskyi
smiles,measurement,setting,value
"COc1c(N2C[C@@H]3CCCN[C@@H]3C2)c(F)cc2c(=O)c(C(=O)O)cn(C3CC3)c12 [MXF, moxifloxacin]",MIC,"M. avium; isolate 1, MAC",2 µg/mL
same,MIC,"M. avium; isolate 2, MAC",0.25 µg/mL
same,MIC,"M. avium; isolate 3, MAC",4 µg/mL
same,MIC,M. abscessus complex; [3],8 µg/mL
same,MIC,M. abscessus complex; [4],8 µg/mL
same,MIC,M. abscessus complex; [5],16 µg/mL
same,MIC,M. abscessus complex; [6],16 µg/mL
same,MIC,M. abscessus complex; [7],4 µg/mL
same,MIC,M. abscessus complex; [8],16 µg/mL
same,MIC,M. abscessus complex; [9],8 µg/mL
same,MIC,M. abscessus complex; [10],16 µg/mL
same,MIC,M. abscessus complex; [11],8 µg/mL
same,MIC,M. abscessus complex; [12],4 µg/mL
same,MIC,M. abscessus complex; [13],8 µg/mL
same,MIC,M. abscessus complex; [14],4 µg/mL
same,MIC,M. abscessus complex; [15],8 µg/mL
same,MIC,M. abscessus complex; [16],8 µg/mL
same,MIC,M. abscessus complex; [17],8 µg/mL
same,MIC,M. abscessus complex; [18],4 µg/mL
same,MIC,M. abscessus complex; [19],4 µg/mL
same,MIC,"M. chelonae; isolate 18, M. chelonae",4 µg/mL
same,MIC,"M. chelonae; isolate 19, M. chelonae",8 µg/mL
same,MIC,"M. chelonae; isolate 20, M. chelonae",2 µg/mL
same,MIC,"M. chelonae; isolate 21, M. chelonae",> 16 µg/mL
same,MIC,"M. chelonae; isolate 22, M. chelonae",2 µg/mL
same,MIC,M. mucogenium group; [20],0.12 µg/mL
same,MIC,M. mucogenium group; [21],0.25 µg/mL
same,MIC,M. mucogenium group; [22],0.25 µg/mL
same,MIC,M. mucogenium group; [23],0.5 µg/mL
same,MIC,M. mucogenium group; [24],0.25 µg/mL
same,MIC,M. mucogenium group; [25],0.5 µg/mL
same,MIC,M. mucogenium group; [26],1 µg/mL
same,MIC,M. mucogenium group; [27],1 µg/mL
same,MIC,M. mucogenium group; [28],0.5 µg/mL
same,MIC,M. mucogenium group; [29],1 µg/mL
same,MIC50,[1],2 µg/mL
same,MIC90,[1],8 µg/mL
same,MIC50,[2],2 µg/mL
same,MIC90,[2],16 µg/mL
same,MIC,M. arupense,> 16 µg/mL
same,MIC,"M. chimaera; isolate 4, MAC",4 µg/mL
same,MIC,"M. chimaera; isolate 5, MAC",2 µg/mL
same,MIC,M. immunogenum group; [30],8 µg/mL
same,MIC,M. immunogenum group; [31],4 µg/mL
same,MIC,M. immunogenum group; [32],16 µg/mL
same,MIC,M. immunogenum group; [33],16 µg/mL
same,MIC,"M. simiae; isolate 13, Other",4 µg/mL
same,MIC,"M. simiae; isolate 14, Other",2 µg/mL
same,MIC,"M. simiae; isolate 15, Other",8 µg/mL
same,MIC,M. fortuitum group; [34],≤ 0.06 µg/mL
same,MIC,M. fortuitum group; [35],≤ 0.06 µg/mL
same,MIC,M. fortuitum group; [36],≤ 0.06 µg/mL
same,MIC,M. fortuitum group; [37],≤ 0.06 µg/mL
same,MIC,M. fortuitum group; [38],0.12 µg/mL
same,MIC,M. fortuitum group; [39],0.25 µg/mL
same,MIC,M. fortuitum group; [40],0.12 µg/mL
same,MIC,M. fortuitum group; [41],≤ 0.06 µg/mL
same,MIC,M. fortuitum group; [42],0.12 µg/mL
same,MIC,M. fortuitum group; [43],0.12 µg/mL
same,MIC,M. fortuitum group; [44],0.12 µg/mL
same,MIC,M. fortuitum group; [45],0.12 µg/mL
same,MIC,M. smegmatis group; [46],≤ 0.06 µg/mL
same,MIC,M. smegmatis group; [47],0.25 µg/mL
same,MIC,"M. intracellulare; isolate 6, MAC",2 µg/mL
same,MIC,"M. intracellulare; isolate 7, MAC",1 µg/mL
same,MIC,"M. intracellulare; isolate 8, MAC",2 µg/mL
same,MIC,"M. intracellulare; isolate 9, MAC",2 µg/mL
same,MIC,"M. intracellulare; isolate 10, MAC",0.5 µg/mL
CN(C)c1cc(CNCC(C)(C)C)c(O)c2c1C[C@H]1C[C@H]3[C@H](N(C)C)C(O)=C(C(N)=O)C(=O)[C@@]3(O)C(O)=C1C2=O [OMC],MIC,"M. avium; isolate 1, MAC",> 16 µg/mL
same,MIC,"M. avium; isolate 2, MAC",> 16 µg/mL
same,MIC,"M. avium; isolate 3, MAC",> 16 µg/mL
same,MIC,M. abscessus complex; [3],0.25 µg/mL
same,MIC,M. abscessus complex; [4],0.25 µg/mL
same,MIC,M. abscessus complex; [5],0.25 µg/mL
same,MIC,M. abscessus complex; [6],0.12 µg/mL
same,MIC,M. abscessus complex; [7],0.25 µg/mL
same,MIC,M. abscessus complex; [8],0.12 µg/mL
same,MIC,M. abscessus complex; [9],0.12 µg/mL
same,MIC,M. abscessus complex; [10],0.12 µg/mL
same,MIC,M. abscessus complex; [11],0.12 µg/mL
same,MIC,M. abscessus complex; [12],0.12 µg/mL
same,MIC,M. abscessus complex; [13],0.12 µg/mL
same,MIC,M. abscessus complex; [14],0.12 µg/mL
same,MIC,M. abscessus complex; [15],0.25 µg/mL
same,MIC,M. abscessus complex; [16],0.12 µg/mL
same,MIC,M. abscessus complex; [17],0.12 µg/mL
same,MIC,M. abscessus complex; [18],0.25 µg/mL
same,MIC,M. abscessus complex; [19],0.06 µg/mL
same,MIC,"M. chelonae; isolate 18, M. chelonae",0.12 µg/mL
same,MIC,"M. chelonae; isolate 19, M. chelonae",0.25 µg/mL
same,MIC,"M. chelonae; isolate 20, M. chelonae",0.12 µg/mL
same,MIC,"M. chelonae; isolate 21, M. chelonae",0.12 µg/mL
same,MIC,"M. chelonae; isolate 22, M. chelonae",0.25 µg/mL
same,MIC,M. mucogenium group; [20],0.25 µg/mL
same,MIC,M. mucogenium group; [21],0.25 µg/mL
same,MIC,M. mucogenium group; [22],1 µg/mL
same,MIC,M. mucogenium group; [23],0.5 µg/mL
same,MIC,M. mucogenium group; [24],1 µg/mL
same,MIC,M. mucogenium group; [25],0.5 µg/mL
same,MIC,M. mucogenium group; [26],0.5 µg/mL
same,MIC,M. mucogenium group; [27],1 µg/mL
same,MIC,M. mucogenium group; [28],1 µg/mL
same,MIC,M. mucogenium group; [29],0.25 µg/mL
same,MIC50,[1],> 16 µg/mL
same,MIC90,[1],> 16 µg/mL
same,MIC50,[2],0.25 µg/mL
same,MIC90,[2],0.5 µg/mL
same,MIC,M. arupense,> 16 µg/mL
same,MIC,"M. chimaera; isolate 4, MAC",> 16 µg/mL
same,MIC,"M. chimaera; isolate 5, MAC",> 16 µg/mL
same,MIC,M. immunogenum group; [30],0.5 µg/mL
same,MIC,M. immunogenum group; [31],0.25 µg/mL
same,MIC,M. immunogenum group; [32],0.5 µg/mL
same,MIC,M. immunogenum group; [33],0.5 µg/mL
same,MIC,"M. simiae; isolate 13, Other",> 16 µg/mL
same,MIC,"M. simiae; isolate 14, Other",> 16 µg/mL
same,MIC,"M. simiae; isolate 15, Other",> 16 µg/mL
same,MIC,M. fortuitum group; [34],0.12 µg/mL
same,MIC,M. fortuitum group; [35],0.12 µg/mL
same,MIC,M. fortuitum group; [36],0.12 µg/mL
same,MIC,M. fortuitum group; [37],0.06 µg/mL
same,MIC,M. fortuitum group; [38],0.12 µg/mL
same,MIC,M. fortuitum group; [39],0.25 µg/mL
same,MIC,M. fortuitum group; [40],0.25 µg/mL
same,MIC,M. fortuitum group; [41],0.12 µg/mL
same,MIC,M. fortuitum group; [42],0.25 µg/mL
same,MIC,M. fortuitum group; [43],0.12 µg/mL
same,MIC,M. fortuitum group; [44],0.12 µg/mL
same,MIC,M. fortuitum group; [45],0.12 µg/mL
same,MIC,M. smegmatis group; [46],0.06 µg/mL
same,MIC,M. smegmatis group; [47],0.5 µg/mL
same,MIC,"M. intracellulare; isolate 6, MAC",> 16 µg/mL
same,MIC,"M. intracellulare; isolate 7, MAC",> 16 µg/mL
same,MIC,"M. intracellulare; isolate 8, MAC",> 16 µg/mL
same,MIC,"M. intracellulare; isolate 9, MAC",> 16 µg/mL
same,MIC,"M. intracellulare; isolate 10, MAC",> 16 µg/mL
CN(C)[C@@H]1C(=O)C(C(N)=O)=C(O)[C@@]2(O)C(=O)C3=C(O)c4c(O)cccc4[C@@](C)(O)[C@H]3C[C@@H]12 [tetracycline],in vitro activity (in words),M. abscessus,very low activity

# Source: patent US20250332178A1, “METHODS OF TREATING MYCOBACTERIAL INFECTIONS USING TETRACYCLINE COMPOUNDS” (priority 2018, published 2025)
